Measured values from ChEMBL document CHEMBL1149829, “Terpenoids Produced by Actinomycetes: Napyradiomycins from Streptomyces antimycoticus NT17” (2008).
Values after ≈ are worked out from the molar mass of the structure shown.

Key:
Format in all cases: functional
[1] = tested on: Enterococcus faecalis; assay: Antibacterial activity against Enterococcus faecalis ATCC 19433 in Mueller Hinton agar medium
[2] = tested on: Bacillus subtilis; assay: Antibacterial activity against Bacillus subtilis ATCC 6633 in Mueller Hinton agar medium
[3] = tested on: Staphylococcus aureus; assay: Antibacterial activity against Staphylococcus aureus 209P JC1 in Mueller Hinton agar medium
[4] = tested on: Streptococcus pyogenes; assay: Antibacterial activity against Streptococcus pyogenes ATCC 12344 in Mueller Hinton agar medium
[5] = tested on: Enterococcus faecium; assay: Antibacterial activity against Enterococcus faecium ATCC 19434 in Mueller Hinton agar medium

Row | MIC [1] | MIC [2] | MIC [3] | MIC [4] | MIC [5] | SMILES
1 | 31.6 µM (≈ 16 µg/mL) | 1 µM (≈ 0.507 µg/mL) | 2 µM (≈ 1.01 µg/mL) | 7.8 µM (≈ 3.96 µg/mL) | 15.8 µM (≈ 8.02 µg/mL) | CC(C)=CCC/C(C)=C/C[C@@]12OC(C)(C)[C@H](Cl)C[C@]1(Cl)C(=O)C1=C(C2=O)C(=[N+]=[N-])C(=O)C=C1O
2 | 14.8 µM (≈ 8.02 µg/mL) | 3.7 µM (≈ 2 µg/mL) | 3.7 µM (≈ 2 µg/mL) | – | 14.8 µM (≈ 8.02 µg/mL) | C=C1CC[C@H](Cl)C(C)(C)[C@@H]1C[C@@]12OC(C)(C)[C@H](Cl)C[C@]1(Cl)C(=O)C1=C(C2=O)C(=[N+]=[N-])C(=O)C=C1O
